Tested on: 299254-011-R-J1-PDC complex spheroid viability
Assay: Anticancer human tumor 299254-011-R-J1-PDC patient-derived melanoma cell line growth inhibition [POLQ]
Conditions: for IC50: curve of first compound; for viability, T/C: stronger effect = lower value
Summary of the method: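 Complex spheroid viability model combining PDC tumour cells with endothelial (HUVEC) and MSC stromal cells. Novobiocin, ART-558 or RP6685 were tested singly and in combination with standard and investigational anticancer drugs. Each was titrated in half-log steps from near clinical Cmax, or from 10 microM where Cmax was unknown.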

[1] = second compound 0.0316 µM, first compound 0.0316 µM
[2] = second compound 0.0316 µM, first compound 0.1 µM
[3] = second compound 0.0316 µM, first compound 0.316 µM
[4] = second compound 0.0316 µM, first compound 1 µM
[5] = second compound 0.0316 µM, first compound 3.16 µM
[6] = second compound 0.0316 µM, first compound 10 µM
[7] = second compound 0.1 µM, first compound 0.0316 µM
[8] = second compound 0.1 µM, first compound 0.1 µM
[9] = second compound 0.1 µM, first compound 0.316 µM
[10] = second compound 0.1 µM, first compound 1 µM
[11] = second compound 0.1 µM, first compound 3.16 µM
[12] = second compound 0.1 µM, first compound 10 µM
[13] = second compound 0.316 µM, first compound 0.0316 µM
[14] = second compound 0.316 µM, first compound 0.1 µM
[15] = second compound 0.316 µM, first compound 0.316 µM
[16] = second compound 0.316 µM, first compound 1 µM
[17] = second compound 0.316 µM, first compound 3.16 µM
[18] = second compound 0.316 µM, first compound 10 µM
[19] = second compound 1 µM, first compound 0.0316 µM
[20] = second compound 1 µM, first compound 0.1 µM
[21] = second compound 1 µM, first compound 0.316 µM
[22] = second compound 1 µM, first compound 1 µM
[23] = second compound 1 µM, first compound 3.16 µM
[24] = second compound 1 µM, first compound 10 µM
[25] = second compound 3.16 µM, first compound 0.0316 µM
[26] = second compound 3.16 µM, first compound 0.1 µM
[27] = second compound 3.16 µM, first compound 0.316 µM
[28] = second compound 3.16 µM, first compound 1 µM
[29] = second compound 3.16 µM, first compound 3.16 µM
[30] = second compound 3.16 µM, first compound 10 µM
[31] = second compound 10 µM, first compound 0.0316 µM
[32] = second compound 10 µM, first compound 0.1 µM
[33] = second compound 10 µM, first compound 0.316 µM
[34] = second compound 10 µM, first compound 1 µM
[35] = second compound 10 µM, first compound 3.16 µM
[36] = second compound 10 µM, first compound 10 µM
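Note: spheroids exposed to drugs for one week before measurement.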
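Throughout, for viability, T/C: percent viability relative to DMSO vehicle control taken as 100%.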

## COc1cc(C2c3cc4c(cc3C(OC3OC5COC(C)OC5C(O)C3O)C3COC(=O)C23)OCO4)cc(OC)c1O (centres undefined) + COC1C(OC(N)=O)C(O)C(Oc2ccc3c(O)c(NC(=O)c4ccc(O)c(CC=C(C)C)c4)c(=O)oc3c2C)OC1(C)C
Second compound 0.0316 µM
  IC50: > 10 µM
Second compound 0.1 µM
  IC50: 9.11 µM
Second compound 0.316 µM
  IC50: > 10 µM
Second compound 1 µM
  IC50: 9.93 µM
Second compound 3.16 µM
  IC50: > 10 µM
Second compound 10 µM
  IC50: > 10 µM
[1]
  viability, T/C: 99%
[2]
  viability, T/C: 85.6%
[3]
  viability, T/C: 101%
[4]
  viability, T/C: 83.7%
[5]
  viability, T/C: 65.8%
[6]
  viability, T/C: 55.1%
[7]
  viability, T/C: 93.8%
[8]
  viability, T/C: 96.1%
[9]
  viability, T/C: 97.4%
[10]
  viability, T/C: 78.3%
[11]
  viability, T/C: 65.3%
[12]
  viability, T/C: 48.2%
[13]
  viability, T/C: 98%
[14]
  viability, T/C: 83.8%
[15]
  viability, T/C: 90.9%
[16]
  viability, T/C: 86.7%
[17]
  viability, T/C: 75.2%
[18]
  viability, T/C: 55.4%
[19]
  viability, T/C: 95.2%
[20]
  viability, T/C: 100%
[21]
  viability, T/C: 99.3%
[22]
  viability, T/C: 101%
[23]
  viability, T/C: 77.2%
[24]
  viability, T/C: 49.9%
[25]
  viability, T/C: 95.5%
[26]
  viability, T/C: 107%
[27]
  viability, T/C: 108%
[28]
  viability, T/C: 95.2%
[29]
  viability, T/C: 63.6%
[30]
  viability, T/C: 59.4%
[31]
  viability, T/C: 103%
[32]
  viability, T/C: 99.7%
[33]
  viability, T/C: 101%
[34]
  viability, T/C: 86.6%
[35]
  viability, T/C: 80.6%
[36]
  viability, T/C: 55.9%

## CCCS(=O)(=O)Nc1ccc(F)c(C(=O)c2c[nH]c3ncc(-c4ccc(Cl)cc4)cc23)c1F + Cc1cccc(N(C)C(=O)C2C(O)CCN2c2nc(C)cc(C(F)(F)F)c2C#N)c1
Second compound 0.0316 µM
  IC50: > 10 µM
Second compound 0.1 µM
  IC50: 8.99 µM
Second compound 0.316 µM
  IC50: 9.29 µM
Second compound 1 µM
  IC50: 9.29 µM
Second compound 3.16 µM
  IC50: > 10 µM
Second compound 10 µM
  IC50: > 10 µM
[1]
  viability, T/C: 117%
[2]
  viability, T/C: 95.7%
[3]
  viability, T/C: 119%
[4]
  viability, T/C: 109%
[5]
  viability, T/C: 123%
[6]
  viability, T/C: 50%
[7]
  viability, T/C: 104%
[8]
  viability, T/C: 107%
[9]
  viability, T/C: 109%
[10]
  viability, T/C: 114%
[11]
  viability, T/C: 115%
[12]
  viability, T/C: 44%
[13]
  viability, T/C: 107%
[14]
  viability, T/C: 112%
[15]
  viability, T/C: 104%
[16]
  viability, T/C: 110%
[17]
  viability, T/C: 103%
[18]
  viability, T/C: 46.3%
[19]
  viability, T/C: 93.1%
[20]
  viability, T/C: 103%
[21]
  viability, T/C: 103%
[22]
  viability, T/C: 107%
[23]
  viability, T/C: 109%
[24]
  viability, T/C: 46.4%
[25]
  viability, T/C: 110%
[26]
  viability, T/C: 124%
[27]
  viability, T/C: 108%
[28]
  viability, T/C: 108%
[29]
  viability, T/C: 117%
[30]
  viability, T/C: 52.6%
[31]
  viability, T/C: 100%
[32]
  viability, T/C: 110%
[33]
  viability, T/C: 113%
[34]
  viability, T/C: 107%
[35]
  viability, T/C: 110%
[36]
  viability, T/C: 52.4%
